From paper PMC10060569 (Frontiers in Pharmacology, 2023)

Assays:
[1] = test system: G189A/S15V-hP2X3R; assay: TEVC of ATP-induced currents, G189A/S15V-hP2X3R mutant in X. laevis oocytes; type: cell-based, human; conditions: ± SEM
Method: Ion currents mediated by P2X receptors were evoked by the indicated concentration of ATP or α,β-meATP and were recorded 1 or 2 days after cRNA injection at ambient temperature at a holding potential of −60 mV by two-electrode voltage clamp (TEVC) as previously described ([Hausmann et al., 2006]). Calcium-free ORi^− solution (90 mM NaCl, 1 mM KCl, 2 mM MgCl2, 10 mM HEPES, pH 7.4) was used to avoid bias due to calcium-activated chloride channels (CaCC) endogenously expressed in X. laevis oocytes ([Miledi, 1982]; [Methfessel et al., 1986]). […]
In the case of fast-desensitizing P2XR subtypes (P2X1R and P2X3R), ATP is applied five times in repetition, and the ATP-induced current amplitude in the presence (after pre-incubation) of the antagonist (fourth application) is compared to the arithmetic mean of flanking control ATP-induced current amplitudes in the absence of the antagonist (third and fifth ATP application). […] The correction factor was calculated as the ratio of the fourth ATP-induced current amplitude to the third amplitude (Eq. 3) when the experiment was performed in the absence of the antagonist. […] Since the magnitude of the run-down varies from day to day and batch to batch of oocytes, the correction factor was determined on each day of the experiments and was calculated as the arithmetic mean of several recordings (at least 3–5 and on average 5) on each day.

[2] = target: T1, 20KVIV23/26N-hP2X1R (Homo sapiens, UniProt P51575, L23V/M21V/R20K/V22I); assay: TEVC of ATP-induced currents, hP2X1R mutant in X. laevis oocytes (peak current protocol); type: cell-based
T1 construct: expressed in transfected cells; host or cells: Xenopus laevis oocytes (cRNA injection)
T1 sequence (P51575 1-399 R20K/M21V/V22I/L23V): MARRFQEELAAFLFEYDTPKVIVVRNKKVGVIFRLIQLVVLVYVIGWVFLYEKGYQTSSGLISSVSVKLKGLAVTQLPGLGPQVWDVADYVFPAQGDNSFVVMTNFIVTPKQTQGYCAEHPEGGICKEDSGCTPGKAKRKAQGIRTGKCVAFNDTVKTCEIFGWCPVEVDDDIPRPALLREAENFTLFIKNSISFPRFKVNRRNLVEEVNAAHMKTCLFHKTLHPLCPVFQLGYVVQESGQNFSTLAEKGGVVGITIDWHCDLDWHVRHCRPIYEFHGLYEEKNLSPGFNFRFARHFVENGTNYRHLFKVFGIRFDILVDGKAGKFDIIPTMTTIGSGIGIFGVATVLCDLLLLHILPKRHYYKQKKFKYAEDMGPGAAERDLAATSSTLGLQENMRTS
Text: Oocyte expression plasmids encoding the wild-type (wt) and N-terminally His-tagged (His-) fusion constructs of the hP2X2R, hP2X3R, hP2X4R, and hP2X7R, and the mutant His-^20RMVL^23KVIV^23S^26N-hP2X1R, S^15V-rP2X3R, and His-S^15V-hP2X3R were the same as used in previous research ([Hausmann et al., 2006]; [Wolf et al., 2011]; [Hausmann et al., 2014]; [Obrecht et al., 2019]). In most cases, the N-terminal His-tagged variants of P2XRs were used here and in the previous studies to allow biochemical analyses on affinity-purified proteins using the same constructs. Although this was not required for the present study, it allows for better comparability with our previous studies. Capped cRNAs of different P2XRs were already available in the research group or were synthesized as previously described ([Schmalzing et al., 1991]; [Stolz et al., 2015]). cRNA was injected into collagenase-defolliculated X. laevis oocytes in aliquots of 41 nl or 23 nl (see Supplementary Table S1 for the amount of cRNA used for expression of the indicated P2XR) using a Nanoliter 2000 injector (World Precision Instruments, Sarasota, United States of America) as described previously ([Hausmann et al., 2014]; [Stolz et al., 2015]; [Obrecht et al., 2019]). To express the heteromeric hP2X2/3 receptor, cRNAs encoding His-hP2X2R and wt-hP2X3R were coinjected at a ratio (w/w) of 1:6. Oocytes were stored at 19°C in an oocyte ringer solution (ORi^+) containing 90 mM NaCl, 1 mM KCl, 1 mM CaCl2, 1 mM MgCl2, and 10 mM HEPES (Carl Roth, Karlsruhe, Germany) adjusted to pH 7.4 with NaOH and supplemented with 50 μg/ml gentamicin (AppliChem, Darmstadt, Germany). […]
(§1) Ion currents mediated by P2X receptors were evoked by the indicated concentration of ATP or α,β-meATP and were recorded 1 or 2 days after cRNA injection at ambient temperature at a holding potential of −60 mV by two-electrode voltage clamp (TEVC) as previously described ([Hausmann et al., 2006]). […]

[3] = target: T2, S15V-rP2X3R (Rattus norvegicus, UniProt P49654, S15V); assay: TEVC of ATP-induced currents, S15V-rP2X3R expressed in X. laevis oocytes (peak current protocol); type: cell-based; conditions: 1 µM ATP
T2 construct: expressed in transfected cells; host or cells: Xenopus laevis oocytes (cRNA injection)
T2 sequence (P49654 1-397 S15V): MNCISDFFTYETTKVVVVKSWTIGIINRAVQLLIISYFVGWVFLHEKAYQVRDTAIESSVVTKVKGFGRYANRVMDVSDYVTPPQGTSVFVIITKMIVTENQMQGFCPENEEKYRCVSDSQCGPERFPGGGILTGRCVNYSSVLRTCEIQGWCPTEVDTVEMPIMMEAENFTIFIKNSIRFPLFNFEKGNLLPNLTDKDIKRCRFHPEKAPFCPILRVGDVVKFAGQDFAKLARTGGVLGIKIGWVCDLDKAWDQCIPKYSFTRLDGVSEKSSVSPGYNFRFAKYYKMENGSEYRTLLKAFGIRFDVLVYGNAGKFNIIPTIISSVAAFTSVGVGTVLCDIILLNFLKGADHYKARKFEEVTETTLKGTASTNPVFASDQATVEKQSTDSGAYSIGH
Text: Oocyte expression plasmids encoding the wild-type (wt) and N-terminally His-tagged (His-) fusion constructs of the hP2X2R, hP2X3R, hP2X4R, and hP2X7R, and the mutant His-^20RMVL^23KVIV^23S^26N-hP2X1R, S^15V-rP2X3R, and His-S^15V-hP2X3R were the same as used in previous research ([Hausmann et al., 2006]; [Wolf et al., 2011]; [Hausmann et al., 2014]; [Obrecht et al., 2019]). In most cases, the N-terminal His-tagged variants of P2XRs were used here and in the previous studies to allow biochemical analyses on affinity-purified proteins using the same constructs. Although this was not required for the present study, it allows for better comparability with our previous studies. […]
as §1

Row | IC50 ([3]; X. laevis oocytes) | inhibitory effect at 100 µM FFA ([3]; 100 µM FFA) | Structure (SMILES) | % inhibition of 10 µM ATP-induced currents by 10 µM diclofenac [1] | reversibility of the inhibitory effect [2] | IC50 ([2]; 1 µM ATP, peak current protocol, X. laevis oocytes) | inhibition at 1000 µM ([2]; read-out: Max. inhibition at 1 mM)
1 | – | – | O=C(O)Cc1ccccc1Nc1c(Cl)cccc1Cl [Diclofenac, diclofenac] | 6.4% ± 3.0% | reversible | 338 µM | 86.2%
2 | 264 µM | 25% | O=C(O)c1ccccc1Nc1cccc(C(F)(F)F)c1 [Flufenamic acid, flufenamic acid] | – | – | – | –
